Experimental data from ChEMBL document CHEMBL1156829 (Proc Natl Acad Sci U S A, 2008).

Columns and labels:
Plasmodium falciparum [1] = test: NOVARTIS: Inhibition of Plasmodium falciparum 3D7 (drug-susceptible) proliferation in erythrocyte-based infection assay; type: functional, organism-based; conditions: Plasmodium falciparum, 3D7
Plasmodium falciparum [2] = test: NOVARTIS: Inhibition of Plasmodium falciparum W2 (drug-resistant) proliferation in erythrocyte-based infection assay; type: functional, organism-based; conditions: Plasmodium falciparum, W2; read-out: EC50
[3] = NOVARTIS: Cytotoxicity against human hepatocellular carcinoma cell line (Huh7); type: toxicity, cell-based, Huh-7; conditions: Huh7 cells (hepatocellular carcinoma cell line)

SMILES | EC50 (Plasmodium falciparum [1]) [nM] | EC50 (Plasmodium falciparum [2]) [nM] | CC50 [3] [nM]
CC(=O)Oc1cccc(C=c2sc3ncnn3c2=O)c1 | > 1250 | > 989 | > 10000
O=C(Nc1ccc(-c2nc3ccc(-c4nc5ccc(NC(=O)c6ccccc6[N+](=O)[O-])cc5[nH]4)cc3[nH]2)cc1)c1ccccc1[N+](=O)[O-] | > 1250 | 987 | > 10000
O=C(Nc1ccc(-c2nc3ccc(NC(=O)c4ccc(Br)cc4)cc3[nH]2)cc1)c1ccc(Br)cc1 | 315 | 413 | 4190
CC1(C)Cc2c(oc3ncn(CCn4cnc5oc6c(c5c4=N)CC(C)(C)SC6)c(=N)c23)CS1 | > 12500 | 9740 | > 100000
COc1cccc(-c2ccc(O)c(CNCCc3cccc(F)c3)c2)n1 | 1090 | 732 | > 10000
COc1cccc2c1C(=O)c1c(O)c3c(c(O)c1C2=O)C[C@@](O)(C(=O)CO)C[C@@H]3O[C@@H]1C[C@H](N)[C@H](O)[C@H](C)O1 | 48.6 | 47.7 | 485
COc1ccc(Cn2cccc(C(=O)Nc3ccc(OC)cc3)c2=O)cc1 | > 12500 | 3110 | 42500
CCOCCCNC(=O)C1CCCN(S(=O)(=O)c2ccc(C)cc2)C1 (configuration not stated) | > 659 | > 730 | > 10000
COc1cccc2c(C)cc(NCc3ccccc3Cl)nc12 | > 1250 | > 985 | > 10000
COc1ccc(-n2nc(C(=O)NCCC3=CCCCC3)c3ccccc3c2=O)cc1 | 7220 | > 9810 | > 100000
O=C(NCCCCCCNC(=O)Nc1nc(-c2ccc(F)cc2)cs1)Nc1nc(-c2ccc(F)cc2)cs1 | 5970 | 5060 | 51600
Cc1cc(N2CCC(C)CC2)nc2ccc(NC(=O)c3ccc([N+](=O)[O-])o3)cc12 | 1660 | 2140 | 21900
Cc1nc2ccc(-c3ccc4nc(C)[nH]c4c3)cc2[nH]1 | 2090 | 844 | 8630
CCOc1ccc2nc3cc(NC(=O)c4ccc(C)cc4)ccc3c(N)c2c1 | > 1190 | 997 | > 10000
CCOC(=O)c1cnc2ccc(OCC)cc2c1NCCN(CC)CC | 832 | > 988 | > 10000
O=C1CN(C(=O)CC2CCCCC2)C(c2ccccc2)c2cc(Cl)ccc2N1 (configuration not stated) | 7610 | 4570 | 46300
CC(C)CC(=O)OC1C(N2CCCCC2)c2c(ccc(/C=C/C(=O)N3CCCCC3)c2O)OC1(C)C (configuration not stated) | 920 | 975 | > 10000
COCCn1nnnc1C(c1cc2cc3c(cc2[nH]c1=O)OCCO3)N1CCC(O)CC1 (configuration not stated) | > 1250 | 974 | > 10000
CC12CN3CC(C)(CN(C1)C3c1ccccc1)C2=O (configuration not stated) | > 11200 | > 10000 | > 100000
O=C(COC(=O)c1c2c(nc3ccccc13)CCCCCCCCCC2)c1ccc(Cl)cc1 | > 11200 | > 10000 | > 100000
COc1ccc(CN(C)C(C)C)cc1OC1CCN(C(=O)C2CCC2)CC1 | > 11200 | > 10000 | > 100000
CN(CCCNc1nc2ccccc2c2nc(-c3cccnc3)nn12)Cc1ccccc1 | > 771 | > 996 | > 10000
COc1cc(C=NNC(=O)c2cccc3ccccc23)ccc1OCC(N)=O | > 1250 | > 989 | > 10000
CCOC(=O)c1c(NC(=O)CSc2nnc(CNC(=O)c3cccs3)n2-c2ccccc2OC)sc2c1CCC2 | > 619 | > 982 | > 10000
O=C(NNc1nc(-c2cc3ccccc3oc2=O)cs1)c1ccccc1 | > 1250 | > 981 | > 10000

SMILES | EC50 (Plasmodium falciparum [1]) [nM] | EC50 (Plasmodium falciparum [2]) [nM] | CC50 [3] [nM]
CCCCSc1ncnc2c1c(-c1ccccc1)cn2-c1cccc(F)c1 | > 1250 | > 974 | > 10000
O=C(Oc1ccc(N2C(=O)c3ccc([N+](=O)[O-])cc3C2=O)cc1)c1ccco1 | > 10000 | > 10000 | > 100000
Cc1[nH]c(=O)[nH]c(=O)c1S(=O)(=O)Nc1ccc2oc(-c3ccncc3)nc2c1 | > 10000 | > 10000 | > 100000
Cc1c(Cl)cccc1NC(=S)N(CCCN(C)c1ccccc1)Cc1cccn1Cc1ccc(Cl)cc1 | > 7300 | > 10000 | > 100000
CCCc1ccc(OCCNC(=O)CCNC(=O)Nc2cccc(Cl)c2)cc1 | > 1380 | > 999 | > 10000
O=C(/C=C/c1ccccc1)c1c(-c2ccccc2)c2cc([N+](=O)[O-])ccc2[nH]c1=O | > 1640 | > 976 | > 10000
CCC(=O)NCc1nc2ccccc2n1Cc1ccc(C)cc1 | > 12500 | > 9760 | > 100000
COc1ccc(CNC(=O)C(Cc2c[nH]c3ccccc23)N2CCS(=O)(=O)CC2)cc1 (configuration not stated) | 851 | 784 | 8040
CCc1ccc(C=NNC(=O)COc2ccc3c(c2)OCO3)cc1 | > 1230 | > 975 | > 10000
O=C(Oc1ccc(-c2ccc(OC(=O)c3ccco3)cc2)cc1)c1ccco1 | > 738 | 973 | > 10000
O=C(NN1CCOCC1)c1ccc(Br)cc1 | > 1510 | > 997 | > 10000
CC1C/C(=C/c2ccncc2)C(=O)/C(=C/c2ccncc2)C1 (configuration not stated) | 1210 | 990 | > 10000
O=C(NC(=C(Cl)Cl)[P+](c1ccccc1)(c1ccccc1)c1ccccc1)c1ccc(F)cc1 | 954 | 171 | 1740
O=C(CN1CCN(C(=O)c2ccco2)CC1)Nc1cc(C(F)(F)F)ccc1Cl | 4040 | > 10000 | > 100000
CCOC(=O)C1=C(C)N/C(=C\c2cc(C)n(-c3ccc(C)cc3)c2C)C1=O | 1840 | 988 | > 10000
O=C1CCC(c2ccc(Cl)c(Cl)c2)c2ccc(O)cc21 (configuration not stated) | 449 | > 914 | > 9270
CCOc1cc(Br)cc(/C=C2\NC(=S)NC2=O)c1O | > 1250 | > 973 | > 10000
CC(C)(c1ccc(Oc2ccc(NC(=O)C(F)(F)F)cc2)cc1)c1cccc(Oc2ccc(NC(=O)C(F)(F)F)cc2)c1 | 2060 | > 986 | > 10000
O=S(=O)(NC1CCCC1)c1cccc2nonc12 | > 1600 | > 982 | > 10000
NC12CC3CC(C1)CC(SSC14CC5CC(CC(N)(C5)C1)C4)(C3)C2 | 208 | 191 | 1960
CN1C(=O)NC(c2cccnc2)C(C(=O)c2cccs2)C1(O)C(F)(F)F (configuration not stated) | > 11200 | > 10000 | > 100000
COc1cccc(C2CC3(CC(C)(C)NC(=S)N3)Oc3cc(OC(C)=O)c(Cl)cc32)c1 (configuration not stated) | > 1300 | > 995 | > 10000
CCCCCN(CC(=O)Nc1cc(C(C)(C)C)nn1-c1ccc(Cl)c(Cl)c1)C(=O)c1cccc(OC)c1 | 597 | 992 | > 10000
COc1cc(OC)c(N(C)S(=O)(=O)c2cccc(C(=O)OCC(=O)Nc3ccccc3C(C)=O)c2)cc1Cl | 8400 | 7310 | > 100000
